Measured values reported in article PMC5681660, “Reduced hepatitis B and D viral entry using clinically applied drugs as novel inhibitors of the bile acid transporter NTCP” (Scientific Reports, 2017).
Where a name gives a salt, the structure may show the parent alone. Read-outs that look alike come from different tables or passages of the source.

Tests used:
human NTCP [1] = molecular target: T1, human NTCP (Homo sapiens, UniProt Q14973); assay: Screening taurocholate uptake assay (96-well, [14C]taurocholate, 10 µM drug)
T1 sequence (Q14973 1-349): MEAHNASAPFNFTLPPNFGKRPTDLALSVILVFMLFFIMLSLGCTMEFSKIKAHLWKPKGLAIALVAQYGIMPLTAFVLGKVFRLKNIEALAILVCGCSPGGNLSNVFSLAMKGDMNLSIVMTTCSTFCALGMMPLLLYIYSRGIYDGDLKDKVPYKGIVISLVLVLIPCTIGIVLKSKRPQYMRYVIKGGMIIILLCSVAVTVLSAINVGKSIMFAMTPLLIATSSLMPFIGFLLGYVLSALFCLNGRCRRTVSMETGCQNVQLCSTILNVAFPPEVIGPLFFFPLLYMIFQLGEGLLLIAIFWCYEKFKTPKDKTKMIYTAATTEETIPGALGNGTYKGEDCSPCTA

human NTCP [2] = molecular target: T1, human NTCP; assay: Screening fluorescent competitive Myrcludex B-FITC binding assay (96-well, 10 µM drug)
[3] = Prestwick library screen, 10 µM drug, B-score of taurocholate uptake
[4] = combined ranking from functional and binding assay B-scores
[5] = Prestwick library screen, 10 µM drug, B-score of Myrcludex B-FITC binding
[6] = Prestwick library screen, taurocholate uptake, 10 µM drug
[7] = ranking score beside the functional and binding assay B-scores of the screen
[8] = Prestwick library screen, Myrcludex B-FITC binding, 10 µM drug
[9] = combined ranking from functional and binding screening assays
[10] = screen, 10 µM drug, taurocholate uptake
[11] = screen, 10 µM drug, Myrcludex B-FITC binding

Compound | B-score functional assay (human NTCP [1]; [3]) | Ranking score (human NTCP [1]; [4]) | B-score binding assay (human NTCP [2]; [5]) | B-score functional assay (human NTCP [1]; [6]) | Ranking score (human NTCP [1]; [7]) | B-score binding assay (human NTCP [2]; [8]) | other results
COc1ccc(NS(=O)(=O)c2ccc(N)cc2)nn1 [Sulfamethoxypyridazine] | 0.331 | 989.975 | 1.584 |  |  |  | 
CC1(C)S[C@@H]2[C@H](NC(=O)Cc3ccccc3)C(=O)N2[C@H]1C(=O)O.CC1(C)S[C@@H]2[C@H](NC(=O)Cc3ccccc3)C(=O)N2[C@H]1C(=O)O.c1ccc(CNCCNCc2ccccc2)cc1 [Benzathine benzylpenicillin] |  |  |  | -0.072 | 672.134 | 0.21 | 
CN(C)C(=N)N=C(N)N [Metformin hydrochloride] |  |  |  | -0.092 | 761.884 | 1.144 | 
CN1Cc2c(N)cccc2C(c2ccccc2)C1 (stereo not drawn) [Nomifensine maleate] |  |  |  |  |  |  | Ranking score (human NTCP [1]; [9]): 394.208; B-score functional assay (human NTCP [1]; [10]): 0.089; B-score binding assay (human NTCP [2]; [11]): -1.176
OCc1cc(C(O)CNCCCCCCOCCCCc2ccccc2)ccc1O (stereo not drawn) [Salmeterol] |  |  |  |  |  |  | Ranking score (human NTCP [1]; [9]): 391.804; B-score functional assay (human NTCP [1]; [10]): 0.004; B-score binding assay (human NTCP [2]; [11]): -0.999
Nc1nc(N)nc(-c2cc(Cl)ccc2Cl)n1 [Irsogladine maleate] |  |  |  | 5.029 | 750.144 | -0.312 | 
CC1COc2c(N3CCN(C)CC3)c(F)cc3c(=O)c(C(=O)O)cn1c23 (stereo not drawn) [Ofloxacin] |  |  |  |  |  |  | B-score functional assay (human NTCP [1]): 1.32; Ranking score (human NTCP [1]): 1023.33; B-score binding assay (human NTCP [2]): 0.588
CCOc1ccc(Cc2nccc3cc(OCC)c(OCC)cc23)cc1OCC [Ethaverine hydrochloride] | 0.024 | 885.91 | 1.651 |  |  |  | 
CCC1=C(C)CN(C(=O)NCCc2ccc(S(=O)(=O)NC(=O)N[C@H]3CC[C@H](C)CC3)cc2)C1=O [Glimepiride] |  |  |  |  |  |  | Ranking score (human NTCP [1]; [9]): 350.338; B-score functional assay (human NTCP [1]; [10]): -1.888; B-score binding assay (human NTCP [2]; [11]): 0.412
C#CCN[C@@H]1CCc2ccccc21 [Rasagiline] |  |  |  | -0.098 | 667.796 | 0.275 | 
O=C1NCC2(CCN(CCc3ccccc3)CC2)O1 [Fenspiride hydrochloride] |  |  |  | 0.107 | 788.391 | 0.26 | 
COC(=O)C1=C(C)NC(C)=C(C(=O)OCCN(C)Cc2ccccc2)C1c1cccc([N+](=O)[O-])c1 (stereo not drawn) [Nicardipine hydrochloride] |  |  |  |  |  |  | Ranking score (human NTCP [1]; [9]): 378.616; B-score functional assay (human NTCP [1]; [10]): -0.022; B-score binding assay (human NTCP [2]; [11]): -1.032
Cc1ccc(-c2cc(C(F)(F)F)nn2-c2ccc(S(N)(=O)=O)cc2)cc1 [Celecoxib] |  |  |  | 0.148 | 728.485 | 0.033 | 
Nc1ccc(S(=O)(=O)Nc2ncccn2)cc1 [Sulfadiazine] | 0.878 | 1074.81 | 1.389 |  |  |  | 
CN1CCN(CCCN2c3ccccc3Sc3ccc(S(=O)(=O)N(C)C)cc32)CC1.CS(=O)(=O)O.CS(=O)(=O)O [Thioproperazine dimesylate] | 0.683 | 1068.06 | 1.771 |  |  |  | 
CN(C)c1ccc(O)c2c1C[C@H]1C[C@H]3[C@H](N(C)C)C(O)=C(C(N)=O)C(=O)[C@@]3(O)C(O)=C1C2=O [Minocycline hydrochloride] |  |  |  |  | 838.821 | 0.626 | B-score functional assay (human NTCP [1]): 0.089
Cl.NCC(O)c1ccc(O)cc1 (racemic) [(+,-)-Octopamine hydrochloride] | 2.044 | 930.549 | 0.069 |  |  |  | 
CC1(C)O[C@@H]2C[C@H]3[C@@H]4CCC5=CC(=O)C=C[C@]5(C)[C@H]4[C@@H](O)C[C@]3(C)[C@]2(C(=O)CO)O1 [Desonide] |  |  |  | -0.358 | 665.567 | 0.993 | 
C[C@H]1O[C@H](O[C@H]2[C@H](O)[C@@H](O)[C@@H](O[C@H]3[C@H](O)[C@@H](O)C(O)O[C@@H]3CO)O[C@@H]2CO)[C@H](O)[C@@H](O)[C@@H]1N[C@H]1C=C(CO)[C@@H](O)[C@H](O)[C@H]1O (stereo partly drawn) [Acarbose] |  |  |  | 1.632 | 792.136 | -0.109 | 
CCCCC1C(=O)N(c2ccccc2)N(c2ccc(O)cc2)C1=O (stereo not drawn) [Oxyphenbutazone] | 2.782 | 1000.56 | 0.23 |  |  |  | 
COc1nc(C)nc(Cl)c1N=C1NCCN1 [Moxonidine] |  |  |  |  |  |  | Ranking score (human NTCP [1]; [9]): 427.083; B-score functional assay (human NTCP [1]; [10]): -0.211; B-score binding assay (human NTCP [2]; [11]): -0.494
CCOc1ccc(NC(C)=O)cc1 [Phenacetin] | 0.074 | 860.113 | 0.917 |  |  |  | 

Compound | B-score functional assay (human NTCP [1]; [3]) | Ranking score (human NTCP [1]; [4]) | B-score binding assay (human NTCP [2]; [5]) | B-score functional assay (human NTCP [1]; [6]) | Ranking score (human NTCP [1]; [7]) | B-score binding assay (human NTCP [2]; [8]) | other results
O.O=P(O)(O)C(O)(Cc1cccnc1)P(=O)(O)O [Risedronic acid monohydrate] | 1.315 | 1045.06 | 0.727 |  |  |  | 
C#C[C@]1(O)CC[C@H]2[C@@H]3CCC4=CCCC[C@@H]4[C@H]3CC[C@@]21C [Lynestrenol] | 2.662 | 897.58 | 0.007 |  |  |  | 
Cl.Cl.Cl.Cl.Cl.NCCNCCNCCNCCN |  |  |  | -0.035 | 758.136 | 0.678 | 
CCCC(C)(COC(N)=O)COC(=O)NC(C)C (stereo not drawn) [Carisoprodol] |  |  |  | -0.248 | 768.775 | 3.83 | 
O=C1Cc2cc(CCN3CCN(c4nsc5ccccc45)CC3)c(Cl)cc2N1 [Ziprasidone Hydrochloride] |  |  |  |  |  |  | Ranking score (human NTCP [1]; [9]): 382.094; B-score functional assay (human NTCP [1]; [10]): -0.279; B-score binding assay (human NTCP [2]; [11]): -0.675
O=c1[nH]cc(F)c(=O)[nH]1 [5-fluorouracil] |  |  |  |  |  |  | Ranking score (human NTCP [1]; [9]): 327.242; B-score functional assay (human NTCP [1]; [10]): -0.016; B-score binding assay (human NTCP [2]; [11]): -1.388
(-) -Levobunolol hydrochloride | 0.733 | 1039.8 | 1.256 |  |  |  | 
Cc1ccc(-c2ncc(Cl)cc2-c2ccc(S(C)(=O)=O)cc2)cn1 [Etoricoxib] |  |  |  |  |  |  | Ranking score (human NTCP [1]; [9]): 393.756; B-score functional assay (human NTCP [1]; [10]): -0.663; B-score binding assay (human NTCP [2]; [11]): -0.254
CN1CCC2(C)c3cc(O)ccc3N(C)C12.O=C(O)/C=C/C(=O)O (single isomer, unassigned; (-)) [(-)-Eseroline fumarate salt] |  |  |  | 0.19 | 803.481 | 0.233 | 
C#C[C@]1(O)CC[C@H]2[C@@H]3CCC4=CC(=O)CC[C@]4(C)[C@H]3CC[C@@]21C [Ethisterone] |  |  |  | -0.564 | 653.06 | 2.018 | 
CC(=O)N1CCN(c2ccc(OCC3COC(Cn4ccnc4)(c4ccc(Cl)cc4Cl)O3)cc2)CC1 (stereo not drawn) [Ketoconazole] |  |  |  |  |  |  | Ranking score (human NTCP [1]; [9]): 349.5; B-score functional assay (human NTCP [1]; [10]): 0.044; B-score binding assay (human NTCP [2]; [11]): -1.382
O=C(NCNC(=O)NC1C(=O)NC(=O)N1CO)NC1C(=O)NC(=O)N1CO (stereo not drawn) [Imidurea] | 1.058 | 960.608 | 0.346 |  |  |  | 
Nc1nc(O)c2[nH]nnc2n1 [Azaguanine-8] | 3.711 | 1120.13 | 0.825 |  |  |  | 
C1N2CN3CN1CN(C2)C3 [Methenamine] | 1.472 | 906.386 | 0.067 |  |  |  | 
O=C(O)c1cccnc1 [Niacin] |  |  |  | 0.004 | 716.877 | 0.206 | 
CC(=O)OCC(=O)[C@@]1(O)CC[C@H]2[C@@H]3CCC4=CC(=O)CC[C@]4(C)[C@H]3[C@@H](O)C[C@@]21C [Cortisol acetate] |  |  |  | 0.009 | 752.137 | 0.369 | 
O=P(O)(O)C(O)(Cn1ccnc1)P(=O)(O)O [Zoledronic acid hydrate] |  |  |  |  |  |  | Ranking score (human NTCP [1]; [9]): 422.203; B-score functional assay (human NTCP [1]; [10]): -0.476; B-score binding assay (human NTCP [2]; [11]): -0.262
O=C1NCCN1c1ncc([N+](=O)[O-])s1 [Niridazole] |  |  |  |  |  |  | Ranking score (human NTCP [1]; [9]): 301.174; B-score functional assay (human NTCP [1]; [10]): -1.225; B-score binding assay (human NTCP [2]; [11]): -0.358
Nc1nc(=O)n([C@@H]2CS[C@H](CO)O2)cc1F [(-)-Emtricitabine] | 1.373 | 1006 | 0.464 |  |  |  | 
CO/N=C(\C(=O)N[C@@H]1C(=O)N2C(C(=O)O)=C(COC(N)=O)CS[C@H]12)c1ccco1 [Cefuroxime sodium salt] |  |  |  | 0.233 | 660.887 | -0.123 | 
CCCCC(C)(O)C/C=C/[C@H]1[C@H](O)CC(=O)[C@@H]1CCCCCCC(=O)OC (mixture of isomers) [Misoprostol] |  |  |  | -0.231 | 671.728 | 0.662 | 
COc1ccc(CN2CCNCC2)c(OC)c1OC [Trimetazidine dihydrochloride] |  |  |  |  |  |  | Ranking score (human NTCP [1]; [9]): 350.668; B-score functional assay (human NTCP [1]; [10]): 0.211; B-score binding assay (human NTCP [2]; [11]): -1.545
